In general, CC50 refers to the concentration that lowers cell viability or growth by half. The IC50 is the concentration that inhibits the measured activity by half. For orientation: half-life means how long it takes for the measured level to halve. As usually defined, the NOAEL is the highest dose or exposure tested at which no adverse effect was seen.

This is an account of results in US7585851B2, “3′-prodrugs of 2′-deoxy-β-L-nucleosides” (priority 2000, dated 2009).

Data set [1] is described as follows: Bioavailability of the prodrugs of L-dC in monkeys, with and without L-dT. Particulars: for % BA (bioavailability of L-dC): estimated relative to AUC of L-dC (oral dose).
Data set [2] in a line: Solubility study in water (HPLC). Particulars: for Solubility (g/L) / Solubility (mol/L): in water.
The conditions of data set [3]: Day 25, analyte = label.
The conditions of data set [4]: for Tlast: analyte = label.
Data set [5] relates to cytosolic extracts of HepG2 cells. Description: Steady state phosphorylation kinetics in HepG2 cytosolic extracts. In kind it is biochemical, human.
Data set [6] relates to HepG2 cells. Description: Mitochondrial toxicity assay in HepG2 cells. Particulars: human. It is filed as cell-based, human.
Data set [7] in a line: Mitochondrial toxicity assay in HepG2 cells. It is filed as cell-based, human. Particulars: human.
Data set [8] deals with virion-associated DNA polymerase of WHV (Woodchuck hepatitis B virus, UniProt P03160). Description: biochemical.
Data set [9] deals with T1, human DNA polymerase β (Homo sapiens, UniProt P06746). Particulars: from Chang, et al. / Yao, read-out: IC50 Human DNA pol β; cited from earlier work.
The target in data set [10] is T2, human DNA polymerase γ (Homo sapiens, UniProt P54098).
T2 sequence (P54098 1-1239): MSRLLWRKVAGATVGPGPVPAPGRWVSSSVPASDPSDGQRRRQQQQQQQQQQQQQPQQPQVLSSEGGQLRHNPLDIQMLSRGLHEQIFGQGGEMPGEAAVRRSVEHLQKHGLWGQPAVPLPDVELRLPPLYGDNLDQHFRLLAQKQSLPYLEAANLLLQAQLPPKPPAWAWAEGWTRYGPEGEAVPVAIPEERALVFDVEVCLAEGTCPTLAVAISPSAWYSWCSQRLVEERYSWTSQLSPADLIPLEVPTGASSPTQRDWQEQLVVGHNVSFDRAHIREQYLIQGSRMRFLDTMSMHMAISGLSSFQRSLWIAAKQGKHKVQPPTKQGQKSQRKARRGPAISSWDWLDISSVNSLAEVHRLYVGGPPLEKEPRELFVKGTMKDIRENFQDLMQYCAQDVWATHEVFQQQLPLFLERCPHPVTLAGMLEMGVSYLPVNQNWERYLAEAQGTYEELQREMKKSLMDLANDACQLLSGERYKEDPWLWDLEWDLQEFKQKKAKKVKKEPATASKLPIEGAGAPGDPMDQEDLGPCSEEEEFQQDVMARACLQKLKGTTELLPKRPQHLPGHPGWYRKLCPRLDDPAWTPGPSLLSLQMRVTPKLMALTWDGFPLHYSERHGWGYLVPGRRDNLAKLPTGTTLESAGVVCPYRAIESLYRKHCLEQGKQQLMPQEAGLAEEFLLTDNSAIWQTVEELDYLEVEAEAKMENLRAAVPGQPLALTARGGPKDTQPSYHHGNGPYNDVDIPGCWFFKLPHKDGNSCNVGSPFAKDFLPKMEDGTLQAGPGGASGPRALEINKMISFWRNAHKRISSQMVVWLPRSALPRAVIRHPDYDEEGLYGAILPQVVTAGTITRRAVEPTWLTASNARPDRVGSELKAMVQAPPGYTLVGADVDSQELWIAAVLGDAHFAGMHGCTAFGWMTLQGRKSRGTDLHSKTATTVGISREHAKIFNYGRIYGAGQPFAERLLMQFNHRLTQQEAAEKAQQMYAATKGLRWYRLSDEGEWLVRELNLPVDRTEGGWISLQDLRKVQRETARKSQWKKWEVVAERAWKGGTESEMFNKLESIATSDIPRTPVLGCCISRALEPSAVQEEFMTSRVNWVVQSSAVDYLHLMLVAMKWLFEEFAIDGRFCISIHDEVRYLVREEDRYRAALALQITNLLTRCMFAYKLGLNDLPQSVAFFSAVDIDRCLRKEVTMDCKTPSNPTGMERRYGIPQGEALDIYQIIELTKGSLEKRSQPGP
Particulars: from Chang, et al. / Yao; cited from earlier work.

The next data set in a line: in vitro. Particulars: human.
In data set [11] the target is T2, human DNA polymerase γ. In kind it is biochemical. Particulars: highest concentration tested 100 μM. The source says: (§1) Nucleosides and nucleoside analogs are usually metabolized within cells to their TP derivatives. Cellular DNA polymerases are routinely responsible for normal nuclear and mitochondrial DNA synthesis and repair. Because the TP metabolites are potential substrates for DNA polymerases, studies were undertaken to determine if L-dC-TP inhibited human DNA polymerases.

Data set [12] has as its target T1, human DNA polymerase β. In kind it is biochemical. Particulars: highest concentration tested 100 μM; read-out: IC50 Human DNA pol β.
Description: as §1

The test system of data set [13] is HepG2 cells. Particulars: human.
Data set [14] is described as follows: Single dose bioavailability of dival-L-dC (IV and oral) in cynomologus monkey. Particulars: oral dival-L-dC; analyte = label. It is filed as in vivo, cynomologus monkey (macaca fascicularis). An excerpt:
The drug was quantitated in plasma and urine with a liquid chromatography-mass spectrometry (LC-MS) technique.

Data set [15] has as its system human granulocyte-macrophage colony-forming (CFU-GM) progenitor cells. In kind it is cell-based. Particulars: human bone marrow clonogenic assay. An excerpt:
(§2) In particular, anemia and neutropenia are the most common drug-related clinical toxicities associated with the anti-HIV drug zidovudine (ZDV).

Data set [16] relates to human erythroid burst-forming (BFU-E) progenitor cells. It is filed as cell-based. Particulars: human bone marrow clonogenic assay.
Description: as §2

Data set [17] in a line: Log P study, octanol-1/phosphate buffer pH 7.2.
A short description of data set [18]: Escalating oral dose toxicity of dival-L-dC in monkeys. It is filed as in vivo, cynomologus monkey. The source says: […]. […] Clinical observations were documented daily. Blood samples for hematology and serum chemistries were collected and body weight measured before treatment on Days 1, 4, 7, 10, and 14, and before necropsy on Day 17. After completion of Day 17 evaluations, all animals were euthanized and a complete necropsy performed, including macroscopic examination and comprehensive tissue collection.

The conditions of data set [19]: human.
The conditions of data set [20]: octanol-1 / MilliQ water pH 6.5; Study 1, Study 2; listed as L-dC-3′,5′-divalinyl ester hydrochloride. As for the experimental part: (§3) To 1 mL of this solution, 1 mL of octanol-1 (B) saturated with MilliQ water (A′) was added.
as §3

Data set [21] is described as follows: Oral bioavailability of L-dC via dival-L-dC in cynomologus monkey (HPLC study). The source says:
The drug was quantitated in plasma and in urine using HPLC analysis.

[22] abbreviates: endogenous polymerase assay, read-out: IC50 Viral DNA pol (WHV DNA polymerase).

≈ marks a conversion by molar mass, not a printed value. Where “and” joins values, the source holds several entries; their conditions need not be identical. Equal values may be shown once. Where a name gives a salt, the structure may show the parent alone. Read-outs that look alike come from different tables or passages of the source.

Chain of virion-associated DNA polymerase of WHV (P03160 whole entry): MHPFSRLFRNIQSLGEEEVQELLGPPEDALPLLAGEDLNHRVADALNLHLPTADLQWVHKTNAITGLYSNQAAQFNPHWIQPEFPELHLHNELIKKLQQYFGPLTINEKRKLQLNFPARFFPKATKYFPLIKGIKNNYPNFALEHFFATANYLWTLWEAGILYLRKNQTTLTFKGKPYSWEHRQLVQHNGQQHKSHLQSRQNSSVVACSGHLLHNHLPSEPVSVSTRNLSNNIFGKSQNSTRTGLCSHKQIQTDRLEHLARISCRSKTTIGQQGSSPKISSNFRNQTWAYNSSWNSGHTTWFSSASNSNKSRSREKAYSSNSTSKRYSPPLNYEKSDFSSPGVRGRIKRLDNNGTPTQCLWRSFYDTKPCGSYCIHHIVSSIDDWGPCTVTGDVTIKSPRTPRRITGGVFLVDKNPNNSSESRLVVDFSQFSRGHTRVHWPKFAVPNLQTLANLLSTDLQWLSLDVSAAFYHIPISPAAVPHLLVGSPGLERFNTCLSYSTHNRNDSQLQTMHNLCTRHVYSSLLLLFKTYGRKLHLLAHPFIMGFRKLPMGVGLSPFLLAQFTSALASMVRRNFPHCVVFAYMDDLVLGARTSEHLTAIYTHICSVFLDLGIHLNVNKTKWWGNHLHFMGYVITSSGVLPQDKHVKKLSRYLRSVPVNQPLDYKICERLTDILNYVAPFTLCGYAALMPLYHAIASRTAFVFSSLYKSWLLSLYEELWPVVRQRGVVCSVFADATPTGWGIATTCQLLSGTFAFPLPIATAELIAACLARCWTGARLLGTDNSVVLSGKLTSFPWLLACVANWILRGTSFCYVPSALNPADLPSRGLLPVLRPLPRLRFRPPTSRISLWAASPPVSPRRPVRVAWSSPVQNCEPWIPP

As for `CC(C)[C@H](N)C(=O)O[C@@H]1C[C@@H](n2ccc(N)nc2=O)O[C@H]1CO` [3′-val-L-dC, 3′-L-valine ester of 2′-deoxy-β-L-cytidine], the “% BA (bioavailability of L-dC)” value in data set [1] (oral) is reported as 85.1 ± 24.5%. Besides, the “Solubility (g/L)” value in [2] and in data set [2] (listed as 3′-valinyl ester hydrochloride of β-L-dC) was above 408 g/L throughout. Also, the “Concentration of solution of the maximum quantity available, single samples” value in data set [2] (water, saturation not obtained, 3 samples, listed as 3′-valinyl ester hydrochloride of β-L-dC) was 1.013 mol/L and 0.996 mol/L and 1.059 mol/L.
For the compound `CC(C)[C@H](N)C(=O)OC[C@@H]1O[C@H](n2ccc(N)nc2=O)C[C@H]1O` [5′-val-L-dC, 5′-L-valine ester of 2′-deoxy-β-L-cytidine hydrochloride], the “% BA (bioavailability of L-dC)” value in data set [1] (oral) is reported as 39.0 ± 11.4%. The “Tlast (median)” value is listed as 4 h in data set [3] (dival-L-dC 1000 mg/kg/day oral, F); 5 h in data set [3] (dival-L-dC 1000 mg/kg/day oral, M); 8 h in data set [3] (dival-L-dC 2000 mg/kg/day oral, F). Also, the Tlast came out at 4 h in [4] (dival-L-dC 1000 mg/kg/day oral, Day 1, F); 4 h in data set [4] (dival-L-dC 1000 mg/kg/day oral, Day 1, M); 4 h in [4] (dival-L-dC 1000 mg/kg/day oral, Day 28, F); 8 h in data set [4] (dival-L-dC 1000 mg/kg/day oral, Day 28, M); 8 h in [4] (dival-L-dC 2000 mg/kg/day oral, Day 1, F); 8 h in data set [4] (dival-L-dC 2000 mg/kg/day oral, Day 1, M). Also, the Tlast in [4] (dival-L-dC 2000 mg/kg/day oral, Day 28, F) is 24 h; in [4] (dival-L-dC 2000 mg/kg/day oral, Day 28, M), 8 h.
For the compound `Nc1ccn([C@H]2C[C@H](O)[C@@H](CO)O2)c(=O)n1` [D-dC, D-Deoxycytidine, reference compound], the Vmax of phosphorylation in data set [5] was determined as 2.15 nmol/min/mg protein. In [2], the “Solubility (g/L)” value was 272 g/L (≈ 1200 mM) and the “Solubility (mol/L)” value stood at 1.03 mol/L (≈ 234 mg/mL).
For `O=c1[nH]c(=O)n([C@@H]2O[C@H](CO)[C@@H](O)[C@@H]2F)cc1I` [FIAU, fialuridine, reference compound], the “mtDNA, % of Control” value with HepG2 cells [6] is 86 % of Control. For the same compound, the CC50 at 14 days in data set [7] was 4000 nM.
Consider `Cc1cn([C@H]2O[C@@H](COP(=O)(O)OP(=O)(O)OP(=O)(O)O)[C@H](O)[C@H]2F)c(=O)[nH]c1=O` [L-FMAU-TP], for which the IC50 is 150 ± 50 nM in data set [8] (setting [22]), above 50000 nM at human DNA polymerase β [9] and above 50000 nM at human DNA polymerase γ [10].
In the case of `Nc1ccn([C@@H]2C[C@@H](O)[C@H](COP(=O)(O)OP(=O)(O)OP(=O)(O)O)O2)c(=O)n1` [L-dC-TP], the IC50 in data set [8] was 1820 nM; against human DNA polymerase γ [11], above 100000 nM; at human DNA polymerase β [12], above 100000 nM. Further, the half-life in “in vitro” is 15.5 h. The apparent intracellular half-life with HepG2 cells [13] was 15.5 ± 0.34 h.
`O=c1ccn([C@@H]2C[C@@H](O)[C@H](CO)O2)c(=O)[nH]1` [L-dU, β-L-2′-deoxyuridine]: in data set [14], the “share of drug excreted / recovered dose in urine, by analyte” value is recorded as “approximately 2.5%”.
On to `Nc1ncnc2c1ncn2[C@@H]1CC[C@H](COP(=O)(O)OP(=O)(O)OP(=O)(O)O)O1` [L-ddA-TP], for which the IC50 in data set [8] (setting [22]) stood at 2000 ± 300 nM.
`Nc1ccn([C@@H]2CS[C@H](COP(=O)(O)OP(=O)(O)OP(=O)(O)O)O2)c(=O)n1` [Lamivudine-TP]: the IC50 in data set [8] (setting [22]) was 500 ± 100 nM; on human DNA polymerase β [9] it was 1200 nM; at human DNA polymerase γ [10], 10 nM.
In the case of `Cc1cn([C@H]2C[C@H](O)[C@@H](CO)O2)c(=O)[nH]c1=O` [Thd, D-thymidine], in data set [5], the Vmax of phosphorylation is on record as 1.26 nmol/min/mg protein.
In the case of `Cc1cn([C@H]2C[C@H](N=[N+]=[N-])[C@@H](CO)O2)c(=O)[nH]c1=O` [ZDV, zidovudine, reference compound], in the data set on HepG2 cells [6], the “mtDNA, % of Control” value is recorded as 119 % of Control. Besides, it took 14000 nM to reach half-maximal cytotoxicity in [7] (CC50 at 14 days). Moreover, the IC50 is 1800 nM in data set [15] and 700 nM in data set [16].
The compound `Nc1ccn([C@H]2CC[C@@H](CO)O2)c(=O)n1` [ddC, zalcitabine, reference compound] registered a CC50 at 14 days in [7] of 20000 nM.
For `CC(C)[C@H](N)C(=O)OC[C@@H]1O[C@H](n2ccc(N)nc2=O)C[C@H]1OC(=O)[C@@H](N)C(C)C` [dival-L-dC, 3′,5′-L-divaline ester of 2′-deoxy-β-L-cytidine], in [17], the “conversion detected in the organic phase during log P experiment” value stood at 14%. Moreover, in data set [18] (20 mg/kg oral, each animal), the “loss in body weight following the initial dose on Day 1” value is recorded as “approximately 0.6 kg”. Also, the “BUN decrease at Day 17 compared to Day 1” value in data set [18] (cumulative, all four monkeys) was around 43%. Also, the NOAEL in [18] (single oral dose by gavage (escalation 20-2000 mg/kg), monkey) is on record as 2000 mg/kg; in data set [4] (28 day oral, rat), below 500 mg/kg. Also, the “share of the oral dose absorbed” value in data set [1] was “approximately 73%”. The “share of the absorbed ester converted to L-dC” value in [1] (oral) is “more than 99%”. Further, in data set [1] (oral, coadministered with 10 mg/kg L-dT), the “% BA w/ L-dT” value turned out to be 74.6 ± 9.9%. Further, the “% BA (bioavailability of L-dC)” value is given as “higher oral bioavailability than the parent L-dC” in data set [1] (oral, listed as 3′,5′-divaline ester of L-dC) and 72.7 ± 22.0% in data set [1] (oral, listed as L-dC di-valine). Also, the plasma protein binding in data set [19] is recorded as 13.3%±2.6%. For the same compound, the “P′ (B/A′)” value in [20] was 1.80 × 10^−3 and 1.77 × 10^−3. In data set [2] (listed as 3′,5′-divalinyl ester hydrochloride of β-L-dC), the “Solubility (mol/L)” value is reported as “more than 2.5 mol/L”. In addition, the “administered oral dose recovered in urine” value in data set [21] (after 72 hours) was 31%; in data set [21] (within 8 hours), “Approximately 26%”.
